Assay results taken from PubChem BioAssay (NCI).
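Protocol summary: plate cells (96-well), add compound at 5 concentrations, incubate 48 h, interpolate endpoints linearly. Abbreviation: GI50, concentration required for 50% inhibition of growth. TGI: concentration producing complete growth inhibition.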

Tests used:
Assay in all cases: NCI tumour cell line growth inhibition, 48 h
[1] = tested on: COLO 205 colon
[2] = tested on: HOP-92 NSCLC
[3] = tested on: K-562 leukemia
[4] = tested on: NCI-H226 lung
[5] = tested on: NCI-H460 lung
[6] = tested on: NCI-H522 lung
[7] = tested on: SF-539 CNS
[8] = tested on: SK-MEL-2 melanoma
[9] = tested on: SNB-19 CNS
[10] = tested on: TK-10 renal

SMILES	TGI [1] [µM]	TGI [2] [µM]	TGI [3] [µM]	TGI [4] [µM]	TGI [5] [µM]	TGI [6] [µM]	TGI [7] [µM]	TGI [8] [µM]	TGI [9] [µM]	TGI [10] [µM]	GI50 [2] [µM]	GI50 [4] [µM]	GI50 [7] [µM]	GI50 [1] [µM]	GI50 [5] [µM]	GI50 [6] [µM]	GI50 [8] [µM]	GI50 [9] [µM]	GI50 [10] [µM]	GI50 [3] [µM]
CN(C)[C@@H]1C(=O)C(C(=O)NCNCCCC(=O)O)=C(O)[C@@]2(O)C(=O)C3=C(O)c4c(O)cccc4[C@@](C)(O)[C@H]3C[C@@H]12	> 100	> 100	> 100	> 100	> 100	> 100	> 100	> 100	> 100	> 100	–	–	–	–	–	–	–	–	–	–
Cc1cc(=O)[nH]c(NN2C(Cl)C(=O)C2c2cccc([N+](=O)[O-])c2)n1 (centres undefined)	51.6	34.1	55.3	46.9	> 100	–	–	36.2	> 100	> 100	–	–	–	–	–	–	–	–	–	–
N=C(N)c1ccc(-c2ccc(-c3ccc(Cl)cn3)s2)cc1	–	2.67	–	12	–	–	3.01	–	–	–	1.27	2.76	1.63	–	–	–	–	–	–	–
CCN(CC)Cc1ccc2cccnc2c1O	42	> 100	> 100	> 100	19.8	3.28	20.7	80.1	> 100	33.1	–	–	–	–	–	–	–	–	–	–
O=C1c2ccccc2C(=O)c2c(NCCNC(=O)C3CCCN3)ccc(NCCNC(=O)C3CCCN3)c21 (centres undefined)	> 100	> 100	52.2	> 100	–	65.2	> 100	> 100	> 100	> 100	–	–	–	–	–	–	–	–	–	–
CN(C)c1ccc2nc3c(C(=O)O)cc(=O)c(O)c-3oc2c1	60	> 100	74.8	> 100	66	31.9	69.3	40.2	89.8	47.5	–	–	–	–	–	–	–	–	–	–
COc1ccc(-n2c3c(c4cc(O)ccc42)C(=O)c2ccccc2C3=O)cc1	> 100	47.5	> 100	–	> 100	> 100	11.5	> 100	> 100	31.1	–	–	–	–	–	–	–	–	–	–
O=C(CC1(O)C(=O)Nc2ccc(Br)cc21)c1ccc(C(=O)NCC2CCC3(CC2)OOC2(CCCCC2)OO3)cc1 (centres undefined)	25.5	4.46	–	30	30.2	1.37	17.6	9.23	38.7	11.9	1.9	4.7	3.9	3.74	3.37	0.336	2.92	10.5	3.71	–
CN(C)CCNC(=O)c1cccc2nc3c4ccccc4c4ccccc4c3nc12	19.3	39.4	3.57	28.1	2.35	23.4	3.18	8.24	8.6	9.86	–	–	–	–	–	–	–	–	–	–
Cc1ccc(C)c(/C(=N\N=C(N)N)C2CC2)c1	> 100	> 100	69.6	> 100	47.9	> 100	75	> 100	> 100	> 100	–	–	–	–	–	–	–	–	–	–
C[n+]1cccc(/C=C/c2ccc3cccc(O)c3n2)c1	> 100	> 100	> 100	> 100	> 100	92.6	> 100	> 100	> 100	> 100	–	–	–	–	–	–	–	–	–	–
C[C@H]1CCC/C=C/[C@@H]2C[C@H](O)C[C@H]2[C@H](O)[C@@H](S(=O)CCN)CC(=O)O1 (some centres undefined)	0.0436	> 100	> 100	0.199	0.0743	0.926	–	–	> 100	4.19	0.274	0.041	< 0.0176	< 0.0156	0.0119	0.0986	0.111	0.21	0.0851	0.132
COc1cnc2c(c1)C(=O)c1c-2n(CCCN2CCNCC2)c(=O)c2cc(Cl)ccc12	2.41	13.7	–	4.91	1.29	–	2.63	4.65	–	–	1.12	1.04	1.33	0.783	0.0449	–	2.11	–	–	–
Oc1cc(O)cc(/C=C/c2ccc(O)c(O)c2)c1	> 62.1	50.3	> 58.9	42.1	60.5	7.17	22.9	16	> 88.4	–	–	–	–	–	–	–	–	–	–	–
COc1cc2ccc1-c1cc(ccc1O)CC1c3cc4c(cc3CCN1C)Oc1c(OC)cc3c(c1O4)C(C2)N(C)CC3 (centres undefined)	–	27	3.27	4.08	3.23	3.2	3.27	3.38	4.28	24.7	–	–	–	–	–	–	–	–	–	–
CCOC(=O)c1c2c(c(O)c3ccccc3c(O)n(-c3ccc(C)cc3)c1C)C(=O)C=CC2=O	48.5	56.9	47.2	> 100	84.6	41.7	53.9	64.7	> 100	57.2	–	–	–	–	–	–	–	–	–	–
CC[C@H](Nc1nc(N)nc(N)c1Cl)c1nc2cccc(NCc3ccc(C(=O)NO)cc3)c2c(=O)n1-c1ccccc1	5.73	2.81	> 100	–	4.43	3.6	3.06	5.27	4.18	6.63	1.26	–	1.64	2.24	1.94	1.29	2.02	1.7	2.02	1.78
COc1ccc(CNc2nc(NCc3ccc(OC)cc3)nc(NC(C)C)n2)cc1	33.9	48.7	> 100	–	17	10.6	27.3	44.2	> 100	70.4	–	–	–	–	–	–	–	–	–	–
Cc1c2ccnc(-c3ccccc3)c2cc2c1[nH]c1ccccc12	6.1	3.12	5.38	5.23	7.36	27.7	7	7.3	17.9	–	–	–	–	–	–	–	–	–	–	–
COc1cc2c(cc1OC)C(Cl)C(c1ccc(Cl)cc1)=C2Cl (centres undefined)	32.2	32.3	32.9	50.6	29.8	32.5	31.2	36.3	> 100	43.4	–	–	–	–	–	–	–	–	–	–
c1ccc2c[n+](CCCCCCCCCC[n+]3ccc4ccccc4c3)ccc2c1	> 10	> 10	> 10	> 10	> 10	> 10	> 10	> 10	> 10	> 10	–	–	–	–	–	–	–	–	–	–
